Measurements published in patent publication US20090158465A1, “TRANSGENIC PLANTS WITH ENHANCED DROUGHT-RESISTANCE AND METHOD FOR PRODUCING THE PLANTS” (priority 2006, published 2009).

Experiments:
[1] = test system: abo1-1 and wild-type leaves; assay: Oxidative stress: leaves from soil-grown plants treated with MV or H2O2 (damage, ion leakage); parameters: species or system Arabidopsis thaliana
Experimental: (§1) The leaves taken from plants grown in soil were treated with 1 μM MV. […] Electrolyte leakage (conductivity) is often used as an indicator of tissue damage. […] Rose Bengal is another reagent that generates H2O2 when exposed to the light. […] This was supported by ion leakage measurements at different time points (FIG. 4H).

[2] = test system: stomata (guard cells) of abo1-1 and wild-type plants; assay: Stomatal aperture (closing) bioassay with ABA; format: cell-based, Arabidopsis thaliana
Experimental: Stomatal closing assays were conducted as described previously (Pei, Z. M. et al., Plant Cell 9:409-42 (1997)). Rosette leaves were floated in solutions containing 50 μM CaCl2, 10 mM KCl, 10 mM MES [2-(N-morpholino)ethanesulfonic acid]-Tris, pH 6.15, and exposed to light (150 μmol m-2 s-1) for 2 h. […] After ABA treatment for 2 h, stomatal apertures were measured as described previously (Pei, Z. M. et al., Plant Cell 9:409-42 (1997)). Values are means ±standard errors (SE) (n=30). Significance (P<0.05) was assessed by Student's t test.
In order to determine the cause of the drought-resistant phenotype of the abo1-1 mutant, we performed experiments to determine whether this phenotype is related to increased sensitivity of stomatal closure to ABA. abo1-1 and wild-type plants were exposed to high humidity for 12 h to open stomata fully. […]

[3] = test system: abo1-1 and wild-type seedlings; assay: Seedling growth on MS medium containing ABA; format: in vivo, Arabidopsis thaliana; conditions: abo1-1 versus wild type; 5-day-old seedlings transferred to different concentrations of ABA, scored one week later
Experimental: Plants were grown in 340-ml pots filled with a mixture of peat/forest soil and vermiculite (3:1) in a greenhouse at 22° C., with light intensity of 50 μmol m-2 s-1 and 70% rH under long-day conditions (16-h-light/8-h-dark cycle). Seedlings were germinated and grown on Murashige and Skoog (MS) medium (M5519; Sigma) supplemented with 3% (wt/vol) sucrose and 0.8% agar under the same growth conditions.
We also analyzed the ABA sensitivities of abo1-plants in seed germination and seedling growth. Seedlings grown for 5 days on MS medium were transferred to MS media containing different concentrations of ABA. One week later, the plants were scored for visible changes. Without ABA, the root growth of abo1-1 plants was slower than that of wild-type plants but they had similar levels of shoot growth. […] The postgermination growth of abo1-1 seedlings was more impaired than that of the wild type, as indicated by the ratio of seedlings with green cotyledons to the total number of seedlings after germination for 1 week (FIG. 3D).

[4] = test system: abo1 mutant and wild-type seedlings; assay: Oxidative stress: seedlings exposed to Rose Bengal; format: in vivo, Arabidopsis thaliana; conditions: 10 μM Rose Bengal for 3 days
Experimental: as §1

[5] = test system: abo1-1 and wild-type seedlings; assay: Oxidative stress: seedlings on MS medium supplemented with MV; format: in vivo, Arabidopsis thaliana
Source text: ABA can induce the expression of genes encoding antioxidant enzymes (Guan, L. et al., Plant Physiol. 117:217-224 (1998); Zhu, D. et al., Plant Physiol. 106:173-178 (1994)). ABA also induces the production of reactive oxygen species that serve as a second messenger in ABA signaling in guard cells (Jiang, M. et al., Plant Cell Physiol. 42:1265-127 (2001); Pei, Z. M. et al., Nature 406:731-73 (2000)). In order to test whether the ABA sensitivity of abo1-1 seedlings might be connected with reactive oxygen species, we analyzed the response of abo1-1 mutant plants to oxidative stress. Methyl viologen (MV) (paraquat) inhibits electron transport in the reduction of NADP to NADPH during photosynthesis and thus enhances H2O2 production in chloroplasts under light (Suntres, Z. E. Toxicology 180:65-7 (2002)). Seedlings grown on MS medium for 5 days were transferred to new MS medium supplemented with different concentrations of MV. The abo1-1 seedlings grew well on MS medium supplemented with 3 μM MV, while more than 50% of wild-type seedlings were killed at this concentration (FIG. 4A) after a 5-day treatment. […] Seed germination was inhibited to similar extents for both abo1-1 and wild-type plants by various concentrations of MV. After radicles emerged, the young seedlings were more sensitive to MV.

OO [H2O2]
leaf damage ([1]; wild-type leaves versus abo1-1 leaves, 10 mM H2O2 for 5 days): more damaged than abo1-1 leaves

CC1=CC(=O)CC(C)(C)[C@@]1(O)/C=C/C(C)=C\C(=O)O [ABA, abscisic acid]
stomatal closure ([2]; abo1-1 plants, 1 μM ABA for 2 h): almost completely closed
ABA concentration enhancing stomatal closure in abo1-1 to the same degree as 10 μM ABA in the wild type ([2]; abo1-1 plants, preopened stomata, FIG. 2B): 0.5 µM
stomatal closure ([2]; wild-type plants, 20 μM ABA, same treatment time (2 h), data not shown): did not completely close
root and shoot growth [3]: more inhibited than that of the wild type

O=C([O-])c1c(Cl)c(Cl)c(Cl)c(Cl)c1-c1c2cc(I)c(=O)c(I)c-2oc2c(I)c([O-])c(I)cc12.[Na+].[Na+] [Rose Bengal]
cotyledon damage ([4]; abo1 mutant): no chlorotic symptom observed
cotyledon damage ([4]; wild-type seedlings): severely damaged the cotyledons

C[n+]1ccc(-c2cc[n+](C)cc2)cc1 [MV, Methyl viologen]
cotyledons affected (greening prevented) ([5]; abo1-1, 1.2 μM MV for 10 days): 40%
seedling growth ([5]; abo1-1 seedlings, 3 μM MV, 5-day treatment): grew well
seedling survival ([5]; abo1 mutant seedlings, 6 μM MV): still survived
seedlings with cotyledon greening prevented ([5]; wild-type seedlings, 1.2 μM MV for 10 days): more than 90%
seedlings killed ([5]; wild-type seedlings, 3 μM MV, 5-day treatment): more than 50%
seedling survival ([5]; wild-type seedlings, 4 μM MV): completely killed all
ion leakage (electrolyte leakage, conductivity) ([1]; abo1-1 leaves versus wild type, 1 μM MV): substantially less ion leakage than the wild-type leaves
leaf damage ([1]; abo1-1 leaves, 1 μM MV, after 5 days): enhanced anthocyanin pigmentation but without any apparent chlorotic symptom
leaf damage ([1]; wild-type leaves, 1 μM MV, after 5 days): severely damaged and displayed chlorotic spots or bleaching
